Assays:
Stellaria media = assay: Effectivity testing against weed plants ex. 5.1, Abbott %; format: in vivo; details: 75 g a.i./ha; 151 DAT
Text: (§1) Each plot was divided by different pre-treatments 1 week before application of the trial treatments: • A) Pre-treatment with glyphosate-isopropylammonium allowing to evaluate in this section the pre-emergence effect against weeds. • B) No pre-treatment, present winter annual weeds are received a post-emergence application.
(§2) 2005, applied on dormant turf in winter
(§3) Effectivity was rated in percent (%) herbicidal effect compared with untreated control according to the method of Abbott according to the formula [(X−Y)/X]100 where X is the absolute level/scoring of the control plants, Y is the level/scoring of the treated plants. 100% efficacy means full control; 0% efficacy means no control of the weed; all ratings above 80% are usually acceptable.

Veronica arvensis = assay: as above; format: in vivo
Text: as §1, §2, §3

Dagitaria sanguinales = assay: as above; format: in vivo, Digitaria sanguinales
Text: as §1, §2, §3

Lamium amplexcaule = assay: as above; format: in vivo, Lamium amplexicaule
Text: as §1, §2, §3

Trifolium repens = assay: Effectivity testing against weed plants ex. 5.2, co-formulation/granules in tall fescue turf, early post for the weed, Abbott %; format: in vivo; details: 50 g a.i./ha
Text: A co-formulation containing a mixture compounds no. […] Granules were applied with a shaker can.
Turf grass species: Festuca arundinacea, variety (tall fescue grass)
Weed species: Trifolium repens
Location: Sports turf, North Carolina, USA
Plot size: 1.4 m^2 and 3 replicates per treatment
Application timing: 27 Mar. 2007, spring application, early post for the weed
Effectivity was rated in percent (%) herbicidal effect compared with untreated control according to the method of Abbott mentioned above (see 5.1). 100% efficacy means full control; 0% efficacy means no control of the weed; all ratings above 80% are usually acceptable.

Capsella bursa pastoris = assay: Greenhouse herbicidal effect in weed control ex. 6.2, 2- to 3-leaves stage; format: in vivo; details: 6 g a.i./ha
Text: (§4) That means, when applying the combinations according to the invention, herbicidal effects are observed on a harmful plant species which exceed the formal total of the effects of the herbicides present when these are applied by themselves. Alternatively, it is observed in some cases that a lower application rate is required for the herbicide combination in order to achieve the same effect on a harmful plant species in comparison with the individual products.
(§5) When the data observed already exceed the formal total (=E^A) of the data in the experiments with individual applications, they likewise exceed the expected value according to Colby, which is calculated using the formula below and is likewise regarded as an indication of synergism (cf. S. R. Colby; in Weeds 15 (1967) pp. 20 to 22): E=A+B−(A·B/100)
(§6) In this formula: • A=action of active compound (A) in % at an application rate of a g of AS/ha; • B=action of active compound (B) in % at an application rate of b g of AS/ha; • E=expected value of the action of the combination (A)+(B) in % at the combined application rate a+b g of AS/ha.
(§7) The data observed in the experiments show, at suitably low dosages, an action of the combinations which exceeds the expected values according to Colby (=E^C).

Taraxacum officinalis = assay: Greenhouse herbicidal effect in weed control ex. 6.2, 1- to 2-leaves stage; format: in vivo; details: 6 g a.i./ha
Text: as §4, §5, §6, §7

Cc1ccc2c(c1)[C@H](Nc1nc(N)nc([C@@H](C)F)n1)[C@@H](C)C2 (stereo in doubt) [(A21)/(A22), indaziflam]
Herbicidal effect (%) on Stellaria media, Pre-emergence application after pre-treatment (Stellaria media): 100% | Herbicidal effect (%) on Veronica arvensis, Post-emergence application without pre-treatment (Veronica arvensis; 25 g a.i./ha, 123 DAT): 100% | Herbicidal effect (%) on Veronica arvensis, Pre-emergence application after pre-treatment (Veronica arvensis; 25 g a.i./ha, 123 DAT): 81% | Herbicidal effect (%) on Veronica arvensis, Post-emergence application without pre-treatment (Veronica arvensis; 25 g a.i./ha, 157 DAT): 94% | Herbicidal effect (%) on Veronica arvensis, Pre-emergence application after pre-treatment (Veronica arvensis; 25 g a.i./ha, 157 DAT): 100% | Herbicidal effect (%) on Veronica arvensis, Post-emergence application without pre-treatment (Veronica arvensis; 50 g a.i./ha, 123 DAT): 75% | Herbicidal effect (%) on Veronica arvensis, Pre-emergence application after pre-treatment (Veronica arvensis; 50 g a.i./ha, 123 DAT): 100% | Herbicidal effect (%) on Veronica arvensis, Post-emergence application without pre-treatment (Veronica arvensis; 50 g a.i./ha, 157 DAT): 100% | Herbicidal effect (%) on Veronica arvensis, Pre-emergence application after pre-treatment (Veronica arvensis; 50 g a.i./ha, 157 DAT): 100% | Herbicidal effect (%) on Veronica arvensis, Post-emergence application without pre-treatment (Veronica arvensis; 75 g a.i./ha, 123 DAT): 100% | Herbicidal effect (%) on Veronica arvensis, Pre-emergence application after pre-treatment (Veronica arvensis; 75 g a.i./ha, 123 DAT): 100% | Herbicidal effect (%) on Veronica arvensis, Post-emergence application without pre-treatment (Veronica arvensis; 75 g a.i./ha, 157 DAT): 100% | Herbicidal effect (%) on Veronica arvensis, Pre-emergence application after pre-treatment (Veronica arvensis; 75 g a.i./ha, 157 DAT): 100% | Herbicidal effect (%) on Dagitaria sanguinales, Pre-emergence application after pre-treatment (Dagitaria sanguinales; 25 g a.i./ha, 187 DAT): 100% | Herbicidal effect (%) on Dagitaria sanguinales, Pre-emergence application after pre-treatment (Dagitaria sanguinales; 25 g a.i./ha, 207 DAT): 100% | Herbicidal effect (%) on Dagitaria sanguinales, Pre-emergence application after pre-treatment (Dagitaria sanguinales; 25 g a.i./ha, 234 DAT): 97% | Herbicidal effect (%) on Dagitaria sanguinales, Pre-emergence application after pre-treatment (Dagitaria sanguinales; 25 g a.i./ha, 259 DAT): 99% | Herbicidal effect (%) on Dagitaria sanguinales, Pre-emergence application after pre-treatment (Dagitaria sanguinales; 50 g a.i./ha, 187 DAT): 100% | Herbicidal effect (%) on Dagitaria sanguinales, Pre-emergence application after pre-treatment (Dagitaria sanguinales; 50 g a.i./ha, 207 DAT): 100% | Herbicidal effect (%) on Dagitaria sanguinales, Pre-emergence application after pre-treatment (Dagitaria sanguinales; 50 g a.i./ha, 234 DAT): 100% | Herbicidal effect (%) on Dagitaria sanguinales, Pre-emergence application after pre-treatment (Dagitaria sanguinales; 50 g a.i./ha, 259 DAT): 100% | Herbicidal effect (%) on Dagitaria sanguinales, Pre-emergence application after pre-treatment (Dagitaria sanguinales; 75 g a.i./ha, 187 DAT): 100% | Herbicidal effect (%) on Dagitaria sanguinales, Pre-emergence application after pre-treatment (Dagitaria sanguinales; 75 g a.i./ha, 207 DAT): 100% | Herbicidal effect (%) on Dagitaria sanguinales, Pre-emergence application after pre-treatment (Dagitaria sanguinales; 75 g a.i./ha, 234 DAT): 100% | Herbicidal effect (%) on Dagitaria sanguinales, Pre-emergence application after pre-treatment (Dagitaria sanguinales; 75 g a.i./ha, 259 DAT): 100% | Herbicidal effect (%) on Lamium amplexcaule, Post-emergence application without pre-treatment (Lamium amplexcaule; 25 g a.i./ha, 124 DAT): 91% | Herbicidal effect (%) on Lamium amplexcaule, Pre-emergence application after pre-treatment (Lamium amplexcaule; 25 g a.i./ha, 124 DAT): 58% | Herbicidal effect (%) on Lamium amplexcaule, Post-emergence application without pre-treatment (Lamium amplexcaule; 25 g a.i./ha, 151 DAT): 50% | Herbicidal effect (%) on Lamium amplexcaule, Pre-emergence application after pre-treatment (Lamium amplexcaule; 25 g a.i./ha, 151 DAT): 40% | Herbicidal effect (%) on Lamium amplexcaule, Post-emergence application without pre-treatment (Lamium amplexcaule; 50 g a.i./ha, 124 DAT): 89% | Herbicidal effect (%) on Lamium amplexcaule, Pre-emergence application after pre-treatment (Lamium amplexcaule; 50 g a.i./ha, 124 DAT): 100% | Herbicidal effect (%) on Lamium amplexcaule, Post-emergence application without pre-treatment (Lamium amplexcaule; 50 g a.i./ha, 151 DAT): 67% | Herbicidal effect (%) on Lamium amplexcaule, Pre-emergence application after pre-treatment (Lamium amplexcaule; 50 g a.i./ha, 151 DAT): 90% | Herbicidal effect (%) on Lamium amplexcaule, Post-emergence application without pre-treatment (Lamium amplexcaule; 75 g a.i./ha, 124 DAT): 83% | Herbicidal effect (%) on Lamium amplexcaule, Pre-emergence application after pre-treatment (Lamium amplexcaule; 75 g a.i./ha, 124 DAT): 100% | Herbicidal effect (%) on Lamium amplexcaule, Post-emergence application without pre-treatment (Lamium amplexcaule; 75 g a.i./ha, 151 DAT): 67% | Herbicidal effect (%) on Lamium amplexcaule, Pre-emergence application after pre-treatment (Lamium amplexcaule; 75 g a.i./ha, 151 DAT): 100% | Herbicidal effect (%) on Trifolium repens (Trifolium repens; 30 DAT): 60% | Herbicidal effect (%) on Trifolium repens (Trifolium repens; 381 DAT): 90% | Herbicidal effect (%) 7 DAT on Capsella bursa pastoris (Capsella bursa pastoris): 0% | Herbicidal effect (%) 7 DAT on Taraxacum officinalis (Taraxacum officinalis): 20%
